Assays:
Format in all cases: cell-based
[1] = molecular target: T1, Broad substrate specificity ATP-binding cassette transporter ABCG2 (Homo sapiens, UniProt Q9UNQ0); assay: (§1) Inhibition of ABCG2 (unknown origin) expressed in MDCK II BCRP cells assessed as effect on heophorbide A accumulation at 5 to 10 uM after 120 mins by flow cytometric analysis relative to control; conditions: 2 h
T1 sequence (Q9UNQ0 whole entry): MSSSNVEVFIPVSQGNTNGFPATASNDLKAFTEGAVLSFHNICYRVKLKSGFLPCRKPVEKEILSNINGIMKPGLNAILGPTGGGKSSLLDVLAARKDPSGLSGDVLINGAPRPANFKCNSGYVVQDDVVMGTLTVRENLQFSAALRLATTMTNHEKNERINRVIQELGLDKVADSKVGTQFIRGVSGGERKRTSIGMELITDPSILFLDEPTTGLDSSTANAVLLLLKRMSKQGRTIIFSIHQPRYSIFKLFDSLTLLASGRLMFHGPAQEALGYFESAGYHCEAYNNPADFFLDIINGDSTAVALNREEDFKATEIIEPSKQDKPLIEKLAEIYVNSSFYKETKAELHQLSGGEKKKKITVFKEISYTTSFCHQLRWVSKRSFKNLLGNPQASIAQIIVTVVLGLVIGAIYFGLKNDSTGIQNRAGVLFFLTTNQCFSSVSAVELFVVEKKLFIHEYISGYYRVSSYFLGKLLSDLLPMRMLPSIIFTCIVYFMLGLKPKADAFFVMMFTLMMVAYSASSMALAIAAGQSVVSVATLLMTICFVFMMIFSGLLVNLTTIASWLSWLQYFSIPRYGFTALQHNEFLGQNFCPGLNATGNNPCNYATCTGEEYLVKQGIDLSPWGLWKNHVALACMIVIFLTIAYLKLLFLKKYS

ABCG2 (BCRP) = molecular target: T2, ABCG2 (BCRP) (Homo sapiens, UniProt Q9UNQ0); assay: as §1; conditions: MDCK II BCRP cells expressing ABCG2, probe pheophorbide A
T2 sequence (Q9UNQ0 whole entry): T1 sequence (Q9UNQ0 whole entry)

[2] = molecular target: T1, Broad substrate specificity ATP-binding cassette transporter ABCG2; assay: Inhibition of ABCG2 (unknown origin) expressed in MDCK II BCRP cells assessed as effect on pheophorbide A accumulation after 120 mins by flow cytometric analysis

Row | inhibition (INH) [1] | inhibition at 2 h (ABCG2 (BCRP)) [%] | IC50 [2] [µM] | SMILES
1 | Not Active |  |  | O=C(COc1c(-c2cccs2)oc2ccccc2c1=O)Nc1ccc2c(c1)COC2=O
2 | Not Active |  |  | COc1cccc(/C=C/C(=O)c2ccc(OCC(=O)Nc3ccc4c(c3)COC4=O)cc2)c1
3 |  | ≥ 25 | 13.1 | O=C(COc1c(-c2ccccc2)oc2ccccc2c1=O)Nc1ccc2c(c1)COC2=O
4 | Not Active |  |  | CCCOc1ccc(/C=C/C(=O)c2ccc(OCC(=O)Nc3ccc4c(c3)COC4=O)cc2)cc1
5 | Not Active |  |  | Cc1ccc(-c2oc3ccccc3c(=O)c2OCC(=O)Nc2ccc3c(c2)COC3=O)cc1
6 | Not Active |  |  | O=C(COc1ccc(C(=O)/C=C/c2ccccc2Cl)cc1)Nc1ccc2c(c1)COC2=O
7 |  | ≥ 25 | 20.1 | CCOc1ccc(/C=C/C(=O)c2ccc(OCC(=O)Nc3ccc4c(c3)COC4=O)cc2)cc1
8 | Not Active |  |  | COc1ccc(-c2c(OCC(=O)Nc3ccc(Br)cc3)oc3ccccc3c2=O)cc1
9 | Not Active |  |  | COc1ccc(-c2oc3ccccc3c(=O)c2OCC(=O)Nc2ccc3c(c2)COC3=O)cc1OC
10 | Not Active |  |  | Cc1ccc(-c2c(OCC(=O)Nc3ccc(Br)cc3)oc3ccccc3c2=O)cc1
11 |  | ≥ 25 | 12 | COc1ccc(/C=C/C(=O)c2cccc(OCC(=O)Nc3ccc4c(c3)COC4=O)c2)cc1OC
12 | Not Active |  |  | O=C(COc1ccc(C(=O)/C=C/c2ccccc2)cc1)Nc1ccc2c(c1)COC2=O
13 | Not Active |  |  | O=C(COc1ccc(C(=O)/C=C/c2ccc(OCc3ccccc3)cc2)cc1)Nc1ccc2c(c1)COC2=O
14 | Not Active |  |  | O=C(COc1ccc(C(=O)/C=C/c2ccc(OCc3ccc(Cl)cc3)cc2)cc1)Nc1ccc2c(c1)COC2=O
15 |  | ≥ 25 | 10.9 | O=C(COc1ccc(C(=O)/C=C/c2c(F)cccc2F)cc1)Nc1ccc2c(c1)COC2=O
16 | Not Active |  |  | O=C(COc1ccc(C(=O)/C=C/c2ccco2)cc1)Nc1ccc2c(c1)COC2=O

Row | inhibition (INH) [1] | inhibition at 2 h (ABCG2 (BCRP)) [%] | IC50 [2] [µM] | SMILES
17 |  | ≥ 25 | 6.33 | COc1ccc(/C=C/C(=O)c2cccc(OCC(=O)Nc3ccc(OC)c(OC)c3)c2)cc1OC
18 |  | ≥ 25 | 10.5 | COc1cc(-c2c(OCC(=O)Nc3cccc4ccccc34)oc3ccccc3c2=O)cc(OC)c1OC
19 | Not Active |  |  | COc1ccc(/C=C/C(=O)c2ccc(OCC(=O)Nc3ccc4c(c3)COC4=O)cc2)cc1
20 | Not Active |  |  | O=C(COc1ccc(C(=O)/C=C/c2c(F)cccc2F)cc1)NCc1ccc2c(c1)OCO2
21 | Not Active |  |  | CCCCOc1ccc(/C=C/C(=O)c2ccc(OCC(=O)Nc3ccc4c(c3)COC4=O)cc2)cc1
22 | Not Active |  |  | CCOc1ccc(/C=C/C(=O)c2ccc(OCC(=O)NCc3ccc4c(c3)OCO4)cc2)cc1
23 |  | ≥ 25 | 9 | COc1cc(-c2oc3ccccc3c(=O)c2OCC(=O)Nc2ccc3c(c2)COC3=O)cc(OC)c1OC
24 | Not Active |  |  | O=C(COc1ccc(C(=O)/C=C/c2ccc([N+](=O)[O-])cc2)cc1)Nc1ccc2c(c1)COC2=O
25 |  | ≥ 25 | 5.4 | COc1ccc(NC(=O)COc2ccc(C(=O)/C=C/c3ccco3)cc2)cc1OC
26 |  | ≥ 25 | 8.44 | COc1cc(/C=C/C(=O)c2ccc(OCC(=O)Nc3ccc4c(c3)COC4=O)cc2)cc(OC)c1OC
27 | Not Active |  |  | O=C(COc1ccc(C(=O)/C=C/c2cccs2)cc1)Nc1ccc2c(c1)COC2=O
28 |  | ≥ 25 | 6.95 | COc1ccc(NC(=O)COc2ccc(C(=O)/C=C/c3ccc(Cl)cc3)cc2)cc1OC
29 |  | ≥ 25 | 11.4 | COc1cc(C(=O)/C=C/c2cc(OC)c(OC)c(OC)c2)ccc1OCC(=O)Nc1ccc2c(c1)COC2=O
30 |  | ≥ 25 | 6.63 | COc1ccc(/C=C/C(=O)c2ccc(OCC(=O)Nc3ccc4c(c3)COC4=O)cc2)cc1OC
31 |  | ≥ 25 | 10 | COc1ccc(/C=C/C(=O)c2ccc(OCC(=O)NCc3ccc4c(c3)OCO4)cc2)cc1
